Legend:
Carboplatin = compound: C1CC(C1)(C(=O)[O-])C(=O)[O-].N.N.[Pt+2] [Carboplatin]; conditions: max 10 µM
How it was run: (§1)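 Cancer cell lines were plated in 1536-well plates in 7.5 μl of DMEM/F12 or RPMI with 10% FBS and kept 24 hours at 37°C and 5% CO2 before 72 hours of dosing, with final DMSO typically 0.2%. CellTiter-Glo 2.0 luminescence measured viability, scaled between blank-well and DMSO-well means. Dose responses were fitted to a two-parameter logistic curve with a non-linear mixed effects model. This fit gives the single-agent IC50.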

AZD5363 = compound: C1CN(CCC1(C(=O)N[C@@H](CCO)C2=CC=C(C=C2)Cl)N)C3=NC=NC4=C3C=CN4 [AZD5363]; conditions: max 10 µM
How it was run: as §1

AZD1775 = compound: C=CCn1c(=O)c2cnc(Nc3ccc(N4CCN(C)CC4)cc3)nc2n1-c1cccc(C(C)(C)O)n1 [AZD1775]; conditions: max 3 µM
How it was run: as §1

Trametinib = compound: CC(=O)Nc1cccc(-n2c(=O)n(C3CC3)c(=O)c3c(Nc4ccc(I)cc4F)n(C)c(=O)c(C)c32)c1 [Trametinib]; conditions: max 1 µM
How it was run: as §1

Paclitaxel = compound: CC(=O)O[C@H]1C(=O)[C@@]2(C)[C@H]([C@H](OC(=O)c3ccccc3)[C@]3(O)C[C@H](OC(=O)[C@H](O)[C@@H](NC(=O)c4ccccc4)c4ccccc4)C(C)=C1C3(C)C)[C@]1(OC(C)=O)CO[C@@H]1C[C@@H]2O [Paclitaxel]; conditions: max 3 µM
How it was run: as §1

Palbociclib = compound: CC(=O)c1c(C)c2cnc(Nc3ccc(N4CCNCC4)cn3)nc2n(C2CCCC2)c1=O [Palbociclib]; conditions: max 10 µM
How it was run: as §1

AZD1390 = compound: CC(C)n1c(=O)n(C)c2cnc3cc(F)c(-c4ccc(OCCCN5CCCCC5)nc4)cc3c21 [AZD1390]; conditions: max 0.3 µM
How it was run: as §1

Venetoclax = compound: CC1(C)CCC(CN2CCN(c3ccc(C(=O)NS(=O)(=O)c4ccc(NCC5CCOCC5)c([N+](=O)[O-])c4)c(Oc4cnc5[nH]ccc5c4)c3)CC2)=C(c2ccc(Cl)cc2)C1 [Venetoclax]; conditions: max 1 µM
How it was run: as §1

Dasatinib = compound: CC1=C(C(=CC=C1)Cl)NC(=O)C2=CN=C(S2)NC3=CC(=NC(=N3)C)N4CCN(CC4)CCO [Dasatinib]; conditions: max 2 µM
How it was run: as §1

SG3199 = compound: CC1=CN2[C@@H](C1)C=NC3=CC(=C(C=C3C2=O)OC)OCCCCCOC4=C(C=C5C(=C4)N=C[C@@H]6CC(=CN6C5=O)C)OC [SG3199]; conditions: max 0.001 µM
How it was run: as §1

AZD2811 = compound: CCN(CCO)CCCOc1ccc2c(Nc3cc(CC(=O)Nc4cccc(F)c4)[nH]n3)ncnc2c1 [AZD2811]; conditions: max 1 µM
How it was run: as §1

SN-38 = compound: CCc1c2c(nc3ccc(O)cc13)-c1cc3c(c(=O)n1C2)COC(=O)[C@]3(O)CC [SN-38]; conditions: max 0.3 µM
How it was run: as §1

AZD0156 = compound: CN(C)CCCOc1ccc(-c2ccc3ncc4c(c3c2)n(C2CCOCC2)c(=O)n4C)cn1 [AZD0156]; conditions: max 3 µM
How it was run: as §1

AZD4320 = compound: CN(CC[C@H](CSC1=CC=CC=C1)NC2=C(C=C(C=C2)S(=O)(=O)NC(=O)C3=CC=C(C=C3)N4CCC(CC4)[C@H](C5=CC=CC=C5C6=CC=C(C=C6)Cl)O)S(=O)(=O)C(F)(F)F)CCO [AZD4320]; conditions: max 1 µM
How it was run: as §1

Alisertib = compound: COc1cc(Nc2ncc3c(n2)-c2ccc(Cl)cc2C(c2c(F)cccc2OC)=NC3)ccc1C(=O)O [Alisertib]; conditions: max 10 µM
How it was run: as §1

Etoposide = compound: COc1cc([C@@H]2c3cc4c(cc3[C@@H](O[C@@H]3O[C@@H]5CO[C@@H](C)O[C@H]5[C@H](O)[C@H]3O)[C@H]3COC(=O)[C@H]23)OCO4)cc(OC)c1O [Etoposide]; conditions: max 10 µM
How it was run: as §1

Gefitinib = compound: COc1cc2ncnc(Nc3ccc(F)c(Cl)c3)c2cc1OCCCN1CCOCC1 [Gefitinib]; conditions: max 10 µM
How it was run: as §1

Prexasertib = compound: COc1cccc(OCCCN)c1-c1cc(Nc2cnc(C#N)cn2)n[nH]1 [Prexasertib]; conditions: max 1 µM
How it was run: as §1

Doxorubicin = compound: COc1cccc2c1C(=O)c1c(O)c3c(c(O)c1C2=O)C[C@@](O)(C(=O)CO)C[C@@H]3O[C@H]1C[C@H](N)[C@H](O)[C@H](C)O1 [Doxorubicin]; conditions: max 1 µM
How it was run: as §1

AZD5153 = compound: COc1nnc2ccc(N3CCC(c4ccc(OCCN5CCN(C)C(=O)[C@H]5C)cc4)CC3)nn12 [AZD5153]; conditions: max 1 µM
How it was run: as §1

Lapatinib = compound: CS(=O)(=O)CCNCc1ccc(-c2ccc3ncnc(Nc4ccc(OCc5cccc(F)c5)c(Cl)c4)c3c2)o1 [Lapatinib]; conditions: max 10 µM
How it was run: as §1

AZD8186 = compound: C[C@@H](Nc1cc(F)cc(F)c1)c1cc(C(=O)N(C)C)cc2c(=O)cc(N3CCOCC3)oc12 [AZD8186]; conditions: max 10 µM
How it was run: as §1

Crizotinib = compound: C[C@@H](Oc1cc(-c2cnn(C3CCNCC3)c2)cnc1N)c1c(Cl)ccc(F)c1Cl [Crizotinib]; conditions: max 10 µM
How it was run: as §1

Savolitinib = compound: C[C@@H](c1ccc2nccn2c1)n1nnc2ncc(-c3cnn(C)c3)nc21 [Savolitinib]; conditions: max 1 µM
How it was run: as §1

AZD6738 = compound: C[C@@H]1COCCN1C2=NC(=NC(=C2)C3(CC3)[S@](=N)(=O)C)C4=C5C=CNC5=NC=C4 [AZD6738]; conditions: max 10 µM
How it was run: as §1

AZD5991 = compound: Cc1c2c(nn1C)CSCc1cc(n(C)n1)CSc1cc(c3ccccc3c1)OCCCc1c(C(=O)O)n(C)c3c-2c(Cl)ccc13 [AZD5991]; conditions: max 1 µM
How it was run: as §1

AZD7648 = compound: Cc1cc2ncnn2cc1Nc1ncc2c(n1)n(C1CCOCC1)c(=O)n2C [AZD7648]; conditions: max 10 µM
How it was run: as §1

Taselisib = compound: Cc1nc(-c2cn3c(n2)-c2ccc(-c4cnn(C(C)(C)C(N)=O)c4)cc2OCC3)n(C(C)C)n1 [Taselisib]; conditions: max 10 µM
How it was run: as §1

Selumetinib = compound: Cn1cnc2c(F)c(Nc3ccc(Br)cc3Cl)c(C(=O)NOCCO)cc21 [Selumetinib]; conditions: max 10 µM
How it was run: as §1

SRA737 = compound: N#Cc1cnc(Nc2cc(NC[C@H]3CNCCO3)c(C(F)(F)F)cn2)cn1 [SRA737]; conditions: max 10 µM
How it was run: as §1

MK-2206 = compound: NC1(c2ccc(-c3nc4ccn5c(=O)[nH]nc5c4cc3-c3ccccc3)cc2)CCC1 [MK-2206]; conditions: max 10 µM
How it was run: as §1

Gemcitabine = compound: Nc1ccn([C@@H]2O[C@H](CO)[C@@H](O)C2(F)F)c(=O)n1 [Gemcitabine]; conditions: max 0.3 µM
How it was run: as §1

[1] = compound: O=C(Nc1ccc2[nH]nc(-c3ccncc3)c2c1)[C@@H]1CCN(CC(=O)N2CCN(c3ccc(-c4ncccn4)cc3)CC2)C1; conditions: max 5 µM
How it was run: as §1

Olaparib = compound: O=C(c1cc(Cc2n[nH]c(=O)c3ccccc23)ccc1F)N1CCN(C(=O)C2CC2)CC1 [Olaparib]; conditions: max 10 µM
How it was run: as §1

5-Fluorouracil = compound: O=c1[nH]cc(F)c(=O)[nH]1 [5-Fluorouracil]; conditions: max 20 µM
How it was run: as §1

| Cell Line | IC50, cell viability 72 h (Carboplatin) [nM] | IC50, cell viability 72 h (AZD5363) [nM] | IC50, cell viability 72 h (AZD1775) [nM] | IC50, cell viability 72 h (Trametinib) [nM] | IC50, cell viability 72 h (Paclitaxel) [nM] | IC50, cell viability 72 h (Palbociclib) [nM] | IC50, cell viability 72 h (AZD1390) [nM] | IC50, cell viability 72 h (Venetoclax) [nM] | IC50, cell viability 72 h (Dasatinib) [nM] | IC50, cell viability 72 h (SG3199) [nM] | IC50, cell viability 72 h (AZD2811) [nM] | IC50, cell viability 72 h (SN-38) [nM] | IC50, cell viability 72 h (AZD0156) [nM] | IC50, cell viability 72 h (AZD4320) [nM] | IC50, cell viability 72 h (Alisertib) [nM] | IC50, cell viability 72 h (Etoposide) [nM] | IC50, cell viability 72 h (Gefitinib) [nM] | IC50, cell viability 72 h (Prexasertib) [nM] | IC50, cell viability 72 h (Doxorubicin) [nM] | IC50, cell viability 72 h (AZD5153) [nM] | IC50, cell viability 72 h (Lapatinib) [nM] | IC50, cell viability 72 h (AZD8186) [nM] | IC50, cell viability 72 h (Crizotinib) [nM] | IC50, cell viability 72 h (Savolitinib) [nM] | IC50, cell viability 72 h (AZD6738) [nM] | IC50, cell viability 72 h (AZD5991) [nM] | IC50, cell viability 72 h (AZD7648) [nM] | IC50, cell viability 72 h (Taselisib) [nM] | IC50, cell viability 72 h (Selumetinib) [nM] | IC50, cell viability 72 h (SRA737) [nM] | IC50, cell viability 72 h (MK-2206) [nM] | IC50, cell viability 72 h (Gemcitabine) [nM] | IC50, cell viability 72 h [1] [nM] | IC50, cell viability 72 h (Olaparib) [nM] | IC50, cell viability 72 h (5-Fluorouracil) [nM] |
| --- | --- | --- | --- | --- | --- | --- | --- | --- | --- | --- | --- | --- | --- | --- | --- | --- | --- | --- | --- | --- | --- | --- | --- | --- | --- | --- | --- | --- | --- | --- | --- | --- | --- | --- | --- |
| 22RV1 (Prostate Carcinoma) | > 10000 | > 10000 | > 3000 | > 1000 | 50.6 | > 10000 | > 300 | > 1000 | > 2000 | > 1 | > 1000 | 28.9 | > 3000 | > 1000 | > 10000 | > 10000 | > 10000 | > 1000 | 426 | > 1000 | > 10000 | > 10000 | > 10000 | > 1000 | > 10000 | > 1000 | > 10000 | 1860 | > 10000 | > 10000 | 6050 | 101 | > 5000 | > 10000 | > 20000 |
| 769-P (Kidney Carcinoma) | > 10000 | > 10000 | 874 | > 1000 | 109 | 2870 | > 300 | > 1000 | 253 | > 1 | > 1000 | 159 | > 3000 | > 1000 | > 10000 | > 10000 | 8480 | 40.6 | 816 | 168 | 5240 | > 10000 | 4590 | > 1000 | 1500 | > 1000 | > 10000 | > 10000 | > 10000 | 1540 | > 10000 | 24.3 | > 5000 | > 10000 | 12400 |
| A2780 (Ovarian Carcinoma) | > 10000 | 1830 | 813 | 39.1 | 4.38 | 1160 | > 300 | > 1000 | > 2000 | > 1 | 370 | 11.3 | > 3000 | > 1000 | 386 | 582 | > 10000 | 334 | 48.3 | 73.7 | > 10000 | 1380 | 2190 | > 1000 | 3650 | 964 | 9290 | 117 | 3530 | > 10000 | 1610 | 8.45 | 243 | 9950 | 9030 |
| CGTH-W-1 (Thyroid Gland Carcinoma) | > 10000 | > 10000 | > 3000 | > 1000 | 2590 | > 10000 | > 300 | > 1000 | 544 | > 1 | > 1000 | 30.8 | > 3000 | > 1000 | > 10000 | > 10000 | > 10000 | 129 | 934 | > 1000 | > 10000 | > 10000 | > 10000 | > 1000 | > 10000 | > 1000 | > 10000 | 9160 | > 10000 | > 10000 | > 10000 | 119 | > 5000 | > 10000 | > 20000 |
| EB2 (Burkitt's Lymphoma) | > 10000 | 3270 | 348 | > 1000 | 30.1 | > 10000 | > 300 | > 1000 | 494 | > 1 | > 1000 | 4.03 | > 3000 | > 1000 | 7230 | 198 | > 10000 | 7.8 | 29.7 | 348 | > 10000 | 4920 | 6780 | > 1000 | 1630 | > 1000 | > 10000 | 2020 | > 10000 | 1030 | 3040 | 13.8 | > 5000 | > 10000 | > 20000 |

From the supplement of paper PMC11061612
